Assay results taken from patent publication US5118669A, “Peptides and intermediates therefor useful as antiallergic agents, vasodilators and immunoregulators” (Hitachi Chemical Co., Ltd., priority 1989, dated 1992).

How the values were obtained:
[1] = system: lymphocytes (mononuclear cells from blood of a healthy adult); assay: Blast formation of lymphocytes stimulated with various lectins (3H-thymidine uptake); assay type: cell-based, human (healthy adult)
Method: Mononuclear cells were collected by the density centrifugal method from blood of a healthy adult drawn in the presence of heparin and suspended in an RPMI-1640 culture medium (manufactured by Gibco) containing 10% by volume of bovine fetus serum (called FBS, manufactured by Dainihon Seiyaku). The suspension, adjusted to a concentration of 1×10^6 cells/ml, was divided into a 96-well Falcon microplate (manufactured by Becton Dickinson) in a volume of 100 μl/well. Then, a lectin, 1 μg/ml of PHA (phytohemagglutinin), 10 μg/ml of Con-A (concanavalin A) or 15 μg/ml of PWM (pokeweed mitogen) and one of the captioned peptides at a predetermined concentration were added followed by addition of a 10% FBS containing RPMI-1640 medium to a final liquid volume of 200 μl. Cultivation was made in a 5% by volume CO2 incubator at 37° C. for 72 hours, and 24 hours before completion of the cultivation 5 μCi of ^3 H-thymidine was added. The cells were recovered by a cell harvester (manufactured by Bio-Lab), and uptake of the ^3 H-thymidine was measured by a scintillation counter. Results of the measurement are shown in Table 3-Table 6 wherein figures indicate mean count (cpm)±standard error.

[2] = system: thoracic aorta of male rabbits contracted with norepinephrine; assay: Vasodilating action on aortic spiral strip contracted with norepinephrine; design: species or system rabbit; conditions: norepinephrine contraction
Method: (§1) The thoracic aorta of male rabbits weighing 2.5-3 kg was excised and aortic specimens of spiral strip 25-30 mm in length were prepared. […] The specimen was cumulatively administered with H-Asp-Gly-Lys-OH, H Ser-Asp-Gly-Lys-OH, or H-Asp-Ser-Asp-Gly-Lys-OH or H-Ala-Asp-Ser-Asp-Gly-Lys-OH, and relaxation reaction of the blood vessel was observed. As comparative drug were employed nitroprusside (sodium salt) and verapamil.

[3] = system: IL-1; assay: Productivity of humoral factors by lymphocytes: IL-1; assay type: cell-based, human (healthy adult); conditions: for IL-1: cultivation for a week, control 7.1
Method: (§2) Mononuclear cells separated by the density centrifugal method from blood of a healthy adult drawn in the presence of heparin were suspended in an RPMI-1640 culture medium containing 10% by volume of FBS. The suspension was divided into culture tubes (Falcon 2054) each at a concentration of 1×10^6 cells/ml, to which the captioned peptides were respectively added. Cultivation was made in an incubator for a week. After completion of the cultivation, the culture was centrifuged (1,500 rpm, 10 min.), and the supernatant collected and assayed for humoral factors. Interleukin 1 (IL-1) and tumor-nectrotizing factors were measured, respectively by a IL-1 radioimmunoassay kit (manufactured by Amersham International) and a TNF radioimmunoassay kit (manufactured by Medgenix). Measurement of interleukin 6 (IL-6) was made by the enzyme immunoassay method (ELISA) using IL-6 antibody (manufactured by Genzyme). Results of the measurements are shown in Table 7 wherein figures represent mean value±standard error.

[4] = system: TNF; assay: Productivity of humoral factors by lymphocytes: TNF; assay type: cell-based, human (healthy adult); conditions: for TNF: cultivation for a week, control 2,020
Method: as §2

[5] = system: IL-6; assay: Productivity of humoral factors by lymphocytes: IL-6; assay type: cell-based, human (healthy adult); conditions: for IL-6: cultivation for a week, control 270
Method: as §2

[6] = system: intraperitoneal mast cells of the rats; assay: Inhibitory activity on histamine release from passively sensitized rat mast cells; assay type: cell-based
Method: Male Wistar rats weighing 300-350 g were passively sensitized, and intraperitoneal mast cells of the rats were employed for the test. Rat antiserum used in the passive sensitization was prepared in accordance with the method of Mota [Immunology, 7, p. 681 (1964)] and the method of Hamaoka [J. Immunology, 113, p. 958 (1974)]. Male Wistar rats (weighing 200-250 g) each were injected ovalbumin (10 mg/kg) in a volume of 5 ml/kg intramuscularly on both thighs and simultaneously 2×10^10 cells of killed Bordetella pertussis were intraperitoneally administered to immunize the animal. Blood was drawn from the animal under ether anesthesia via the abdominal aorta on day 12 of the initial sensitization,from which antiserum was separated. The antiserum was lyophilized and stored at -20° C. Titer of the antiserum was assayed by the 48-hour rat PCA reaction. […] The anti-albumin IgE serum of the rat was two fold diluted, and 1 ml of the diluted serum was intraperitoneally administered to sensitize the animal. The rat was killed by blooding 48 hours after the sensitization, and 15 ml of a phosphate buffered saline (NaCl 8 g, KCl 0.2 g, Na2 HPO4.12H2 O 2.88 g, KH2 PO4 0.2 g, EDTA.2Na 0.2 g and bovine serum albumin 1 g, dissolved in purified water to make 1 liter, pH 7.4 (called PBS(-) hereinbelow) was intraperitoneally injected. The rat was then given light abdominal massage for about 2 min. and subjected to laparotomy to collect cells in the abdominal cavity. The cell suspension was centrifuged (1,000 rpm, 10 min.) and then resuspended in PBS(-). The PBS(-) suspension was overlayered on gum arabic density (specific gravity 1.075) followed by centrifugal separation (2,500 rpm, 10 min.). Deposited cells were washed with PBS(-) and suspended in fresh PBS(+)[a solution in which the EDTA 2Na in PBS(-) is replaced by 0.1 g of CaCl2, called PBS(+)] and adjusted to 1×10^5 cells/ml. The cell suspension was divided into silicone-treated test tubes in a volume of 0.8 ml/tube, which were then preincubated at 37° C. for 10 min. In the cell suspension-containing test tube was placed 0.1 ml of a test solution from various solutions diluted with PBS(+) followed by incubation at 37° C. for 15 min. To the test tube was then added 0.1 ml of a mixed solution of ovalbumin antigen (final concentration 1 mg/ml) and phosphatidyl-L-serine (final concentration 100 μm/ml) followed by incubation for additional 15 min. to release histamine. For cromoglycate, one of the comparative drugs, the drug was added 30 sec. prior to the addition of the antigen, and incubation was then made for additional 15 min. The reaction was terminated by addition of 1 ml of ice-cooled PBS(+), and the reaction mixture was centrifuged at 2,500 rpm for 10 min. To 2 ml of the supernatant was added 1 ml of a 4% solution of perchloric acid, and the mixture was assayed for free histamine. For the assay of total histamine, a sample was prepared by placing 0.8 ml of a suspension of untreated mast cells in boiling water for 10 min. followed by addition of 4% perchloric acid.
Amount of histamine in the sample was assayed by fluorimetry, and percent histamine release (%) was calculated by the equation [formula]

[7] = system: thoracic aorta of male rabbits contracted with potassium chloride; assay: Vasodilating action on aortic spiral strip contracted with potassium chloride; design: species or system rabbit; conditions: potassium chloride contraction
Method: as §1

H-Asp-Gly-Lys-OH [DGK]
Uptake of 3H-thymidine by lymphocytes ([1]; Con-A (10 μg/ml), peptide 10^-6 M, control 37,800): 16,700 cpm
Uptake of 3H-thymidine by lymphocytes ([1]; Con-A (10 μg/ml), peptide 10^-8 M, control 37,800): 20,000 cpm
Uptake of 3H-thymidine by lymphocytes ([1]; PHA (1 μg/ml), peptide 10^-6 M, control 69,600): 62,500 cpm
Uptake of 3H-thymidine by lymphocytes ([1]; PHA (1 μg/ml), peptide 10^-8 M, control 69,600): 62,700 cpm
Uptake of 3H-thymidine by lymphocytes ([1]; PWM (15 μg/ml), peptide 10^-6 M, control 13,600): 9,590 cpm
Uptake of 3H-thymidine by lymphocytes ([1]; PWM (15 μg/ml), peptide 10^-8 M, control 13,600): 11,500 cpm
uptake of 3H-thymine by the lymphocytes stimulated with a lectin ([1]; lectin-stimulated, particularly Con-A, summary of Tables 3-6): strongly inhibit
Uptake of 3H-thymidine by lymphocytes ([1]; mitogen None, peptide 10^-6 M, control 1,090): 925 cpm
Uptake of 3H-thymidine by lymphocytes ([1]; mitogen None, peptide 10^-8 M, control 1,090): 1,120 cpm
influence upon uptake of 3H-thymine by lymphocytes in the absence of a mitogen ([1]; no mitogen, summary of Tables 3-6): little influence
Percent relaxation ([2]; compound 10^-4 M): 40.3%
Percent relaxation ([2]; compound 10^-5 M): 9.3%
Percent relaxation ([2]; compound 10^-6 M): 6.6%
Percent relaxation ([2]; compound 10^-7 M): 0%
Percent relaxation ([2]; compound 10^-8 M): 0%
IL-1 ([3]; additive 10^-6 M): 9.5 fM/ml
IL-1 ([3]; additive 10^-8 M): 7.1 fM/ml
production of IL-1 ([3]; summary of Table 7): promote production
TNF ([4]; additive 10^-6 M): 4,730 pg/ml
TNF ([4]; additive 10^-8 M): 4,110 pg/ml
production of TNF ([4]; summary of Table 7): promote production
IL-6 ([5]; additive 10^-6 M): 440 U/ml
IL-6 ([5]; additive 10^-8 M): 400 U/ml
production of IL-6 ([5]; summary of Table 7): promote production
inhibitory activity on histamine release ([6]; at a concentration of 10^-5 M or higher, FIG. 5-7): clear inhibitory activity
potency of histamine release inhibition compared with H-Asp-Ser-Asp-Pro-Arg-OH ([6]; versus comparative drug H-Asp-Ser-Asp-Pro-Arg-OH): higher
potency of histamine release inhibition compared with cromoglycate ([6]; versus cromoglycate): nearly equal to or higher
Percent relaxation ([7]; compound 10^-4 M): 11.2%
Percent relaxation ([7]; compound 10^-5 M): 5.6%
Percent relaxation ([7]; compound 10^-6 M): 0%
Percent relaxation ([7]; compound 10^-7 M): 0%
Percent relaxation ([7]; compound 10^-8 M): 0%
